# Source: the OligoGym collection
# These antisense oligonucleotides have a phosphorothioate backbone; sugars and methylation of C are not fully specified.
# What was measured:
# Conditions in all cases: ASO
# [1] = molecular target: BIRC2
# [2] = molecular target: RIPK1
# [3] = molecular target: FADD
# [4] = molecular target: PTEN
# Note: test concentration or dose not given here.
Sequence,remaining target (mRNA or protein) (fraction of control) [2],remaining target (mRNA or protein) (fraction of control) [3],other results
AAAAGCTAAGTTCACACA,,,remaining target (mRNA or protein) (fraction of control) [1]: ≥ 1
AAAAGGGTCATGGGAGAC,≥ 1,,
AAATTACACTCCATAGAA,,,remaining target (mRNA or protein) (fraction of control) [1]: ≥ 1
AAGATACGAGATCCCGCT,,0.64,
AAGCACTTTAACATGACA,,,remaining target (mRNA or protein) (fraction of control) [1]: 0.85
AAGGAAGATTTAGAGAGT,,0.72,
AAGTCAATACCCACAAGC,,,remaining target (mRNA or protein) (fraction of control) [1]: ≥ 1
AATCAACTCTACTAGCCT,,,remaining target (mRNA or protein) (fraction of control) [1]: 0.53
AATTATTTCCTTTCTGAG,,,remaining target (mRNA or protein) (fraction of control) [4]: 0.86
ACACCGAGTGCAGCAGCA,,0.82,
ACATAGCGCCTCTGACTG,,,remaining target (mRNA or protein) (fraction of control) [4]: 0.28
ACATCTGGCCTGTTCCCA,0.56,,
ACCAGGAACGGGTCCATG,,0.92,
ACCTGGGAAAAGTCTTTG,,,remaining target (mRNA or protein) (fraction of control) [1]: ≥ 1
ACTGGAATAAAACGGGAA,,,remaining target (mRNA or protein) (fraction of control) [4]: 0.85
ACTGGGATATTATGCAGA,0.98,,
ACTTCAGTTGGTGACAGA,,,remaining target (mRNA or protein) (fraction of control) [4]: 0.31
ACTTTCTTCCTAACTTTG,,,remaining target (mRNA or protein) (fraction of control) [1]: ≥ 1
AGGTGGATGCACTTCTGA,,,remaining target (mRNA or protein) (fraction of control) [1]: ≥ 1
AGTCTGTTCATCATCTTC,0.96,,
AGTTGTAAAGCTGTGTTT,,0.57,
ATAAAGATGGTAGTTGGC,≥ 1,,
ATCTGGTAAACCTTTTCT,0.99,,
ATCTTAATGACATTCAAG,≥ 1,,

Sequence,remaining target (mRNA or protein) (fraction of control) [2],remaining target (mRNA or protein) (fraction of control) [3],other results
ATGGGCTCTGGTGAAGGA,,≥ 1,
ATGGTGACAGGCGACTCA,,,remaining target (mRNA or protein) (fraction of control) [4]: 0.25
ATTACACCAGTTCGTCCC,,,remaining target (mRNA or protein) (fraction of control) [4]: 0.41
ATTCGCTTCCCAGCAGAG,0.7,,
ATTCTCTTCTTGTGGGTG,≥ 1,,
ATTGTTGCTGTGTTTCTT,,,remaining target (mRNA or protein) (fraction of control) [4]: 0.36
ATTTCTTGATCACATAGA,,,remaining target (mRNA or protein) (fraction of control) [4]: ≥ 1
ATTTTATAGATTCATCTG,≥ 1,,
CAAGATCTTCACAAAAGG,,,remaining target (mRNA or protein) (fraction of control) [4]: ≥ 1
CAAGTTGAAGAGACTGCA,≥ 1,,
CAATGATTTCCCAAATTA,≥ 1,,
CACACAGGTCTTCTTCCC,,≥ 1,
CACCACAGCACCCCGCCT,,0.95,
CAGATTAATAACTGTAGC,,,remaining target (mRNA or protein) (fraction of control) [4]: 0.91
CAGGAGAAGCCGAGGAAG,,,remaining target (mRNA or protein) (fraction of control) [4]: 0.49
CAGTGCTTTCCCAGATTT,0.94,,
CATGGAGAAGAGGTCTAG,,0.71,
CATGGTCAATTTCATCAA,≥ 1,,
CCACTTCCCTCAGCTCAT,≥ 1,,
CCAGCGGCCCAAGGATTC,,≥ 1,
CCATATAATTGTAGGCTC,≥ 1,,
CCATCAGGACGCTTCGGA,,0.93,
CCATGTAGTAGAGGGTGC,≥ 1,,
CCCCAATACAGATTCACT,,,remaining target (mRNA or protein) (fraction of control) [4]: 0.48

Sequence,remaining target (mRNA or protein) (fraction of control) [2],remaining target (mRNA or protein) (fraction of control) [3],other results
CCCCACATTATCACATAT,,0.9,
CCCCGCCTCGAAGTCGTC,,0.82,
CCCGCGGCTGCTCACAGG,,,remaining target (mRNA or protein) (fraction of control) [4]: 0.19
CCCTATCAGTGAGGACAG,≥ 1,,
CCCTGGGTTCTGTGGAAA,0.7,,
CCGGGTCCCTGGATGTGC,,,remaining target (mRNA or protein) (fraction of control) [4]: 0.24
CCGGTGGCCTCCAAGGAA,,≥ 1,
CCTCCGAACGGCTGCCTC,,,remaining target (mRNA or protein) (fraction of control) [4]: 0.4
CCTGCTGGGTCTTCACAG,,≥ 1,
CGAGAGGCGGACGGGACC,,,remaining target (mRNA or protein) (fraction of control) [4]: ≥ 1
CGCAGCTTGAGTTCAGAA,,0.65,
CGCGCCCGAGGCATAGGA,,0.75,
CGCTTGGCTCTGGACCGC,,,remaining target (mRNA or protein) (fraction of control) [4]: 0.16
CGGGCGCCTCGGAAGACC,,,remaining target (mRNA or protein) (fraction of control) [4]: 0.38
CTCCAGCTTGCGCTTGAC,,0.78,
CTCCAGGTCGTTCTGCTC,,0.65,
CTCCCGCACACGCTCTGT,,≥ 1,
CTCCGGTGCCTGATTCAC,,0.94,
CTCTATGATGACGCCCAG,0.69,,
CTGTGGCTGAATTTGACC,≥ 1,,
CTGTGTTCTTCCAGATTC,,≥ 1,
CTTCGCTCCGATTCCTGG,,≥ 1,
